Patent publication US20040167330A1, “Novel chelating agents and conjugates thereof, their synthesis and use as diagnois and therapeutic agents” (priority 2004, published 2004)
Entries after “also recorded” stand apart in the source; their conditions may differ. One block for each molecule: values may come before it.

What was measured:
[1] = Elimination (cumulative excretion of radioactivity) of ^88Y-DO3A-P^BnNH2 complex; format: in vivo; details: Wistar SPF rats
Protocol: 2. Determination of elimination (mode and rate) of ^88Y-DO3A-P^BnNH2 complex from the organism
2. Mode and rate of elimination of ^88Y-DO3A-P^BnNH2 complex from the organism as determined by cumulative excretion of radioactivity in intervals of 0-2 h and 0-24 h respectively after intravenous injection of ^88Y-DO3A-P^BnNH2 complex into the vena saphena of Wistar SPF rats are summarized in Table 4.

human plasma proteins = test: In vitro binding to human plasma proteins (equilibration dialysis or ultrafiltration); format: in vitro ADME; details: 37° C.
Protocol: 3. Determination of the in vitro binding capacity of ^88Y-DO3A-P^BnNH2 complex to human plasma proteins
3. Binding of the 88Y-DO3A-P^BnNH2 complex to human plasma proteins was evaluated at 37° C. using equilibration dialysis or ultrafiltration. 10.2±2.3% or 3.7±3.2% were bound to plasma proteins, respectively. Pharmacokinetically, reversible binding is of no importance.

[2] = Stability of complex in human plasma; format: in vitro ADME; details: for High molecular weight form / Low molecular weight form: human plasma, 37° C.
Protocol: 4. Determination of the stability of 88Y-DO3A-P^BnNH2 complex in human plasma
4. Stability of the ^88Y-DO3A-P^BnNH2 complex was determined in human plasma at 37° C. over 14 days using standardised in vitro conditions. […] Dissociation of the radionuclide ^88Y-yttrium from the ^88Y-DO3A-P^BnNH2 complex and binding to plasma proteins (predominantly to complex forming transferrin, a protein which prefers to form complexes with trivalent elements such as Fe^3+, Co^3+ but also Y^3+) was shown only for <2% of the total activity administered to human plasma.

[3] = Formation of ^90Y-yttrium complex, radiochemical yield by TLC/HPLC; format: physicochemical
Protocol: Purified DO3A-P^BnNH2 was dissolved in demineralised water at a concentration of 9×10^−5 mol/l. 0.1 ml of this solution were transferred into a small reaction vial (PE). 0.1 ml ^90Y-yttrium chloride (YCl3) in 0.1 M HCl and 0.1 ml ammonium acetate buffer, pH 5.7, were added. The reaction solutions were mixed well. pH values were measured continuously while preparing the solution. 24 identical solutions were prepared accordingly and stored at 25° C. and 37° C. respectively.
Samples were taken after 15 min, 30 min, 45 min, 60 min, 90 min and 120 min and analyzed by thin layer chromatography using silica gel (POLYGRAM SIL G/UV254) or, preferably, paper (Whatman No. 1) as solid phase. TLC was run using either solvent I: 0.1 N ammonium acetate solution or solvent II: 3% sodium chloride solution as developing solution. In parallel, samples (20 μl) were analyzed by gel filtration using HPLC. The HPLC-system comprised a gamma detector (Berthold LB 506) and a UV/VIS spectrometer (Waters 486) installed in two flow through cells, respectively.
Temperature- and time-dependent studies have shown a very short reaction time for the complex formation of a ^90Y-Yttrium-DO3A-complex.
Furthermore, the effect of pH and ligand concentration on radiochemical yield was evaluated. Table 5 summarizes the results relating to the variation of pH between pH 2.0 and pH 8.9 while maintaining a constant ratio of DO3A-P^BnNH2 and Y of 3:1 and a reaction time of 60 min at 25° C. Accordingly, best labeling results are achieved at pH values of 4.9-8.0. Table 6 summarizes the results relating to the variation of the ligand concentration DO3A-P^BnNH2: Y between 1:1 up to 7:1 while maintaining a constant pH range (pH 5.2) and reaction time of 60 min at 25° C.

[4] = as above; format: physicochemical; details: reaction time 0 min, [Y] = 1,2 · 10^−3 mol/l, ratio of ligand: Y = 1:1, pH = 5.5
[5] = Relaxation measurements of gadolinium(III) complex solutions; format: physicochemical; details: gadolinium(III) complex in solution; at 10 MHz
Protocol: Solution was stirred for 1 h at room temperature and pH was set to approx. pH 7 by careful addition of solid KOH. Thus prepared solution as well as other solutions of different concentration which were prepared by a similar approach (all containing known amount of water and gadolinium(III)) were used for relaxation measurements. The solutions gave relaxivity 7.86 mmol^−1 s^−1 (at 10 MHz).
Solution of gadolinium(III) complex of compound 1 for relaxation measurements were prepared similarly to Example 51. The solutions gave relaxivity 7.54 mmol-1 s^−1 (at 10 MHz). Exchange half-life of coordinated water molecule 70 ns was determined (from temperature dependence of ^17O NMR parameters).

Cumulative excretion of radioactivity ([1]; Faeces, interval 0-24 h after intravenous injection): 3.6 ± 2.8%
Cumulative excretion of radioactivity ([1]; Urine, interval 0-2 h after intravenous injection): 79.4 ± 5.2%
Cumulative excretion of radioactivity ([1]; Urine, interval 0-24 h after intravenous injection): 84.3 ± 5.0%
bound to plasma proteins (human plasma proteins; equilibration dialysis): 10.2±2.3%
bound to plasma proteins (human plasma proteins; ultrafiltration): 3.7±3.2%
High molecular weight form ([2]; Day 0, Experiment No. 1): 0.28%
Low molecular weight form ([2]; Day 0, Experiment No. 1): 99.72%
High molecular weight form ([2]; Day 0, Experiment No. 2): 0.10%
Low molecular weight form ([2]; Day 0, Experiment No. 2): 99.90%
High molecular weight form ([2]; Day 3, Experiment No. 1): 0.75%
Low molecular weight form ([2]; Day 3, Experiment No. 1): 99.25%
High molecular weight form ([2]; Day 3, Experiment No. 2): 0.56%
Low molecular weight form ([2]; Day 3, Experiment No. 2): 99.44%
High molecular weight form ([2]; Day 5, Experiment No. 1): 0.72%
Low molecular weight form ([2]; Day 5, Experiment No. 1): 99.28%
High molecular weight form ([2]; Day 5, Experiment No. 2): 0.91%
Low molecular weight form ([2]; Day 5, Experiment No. 2): 99.09%
High molecular weight form ([2]; Day 7, Experiment No. 1): 0.79%
Low molecular weight form ([2]; Day 7, Experiment No. 1): 99.21%
High molecular weight form ([2]; Day 7, Experiment No. 2): 0.73%
Low molecular weight form ([2]; Day 7, Experiment No. 2): 99.27%
High molecular weight form ([2]; Day 10, Experiment No. 1): 0.91%
Low molecular weight form ([2]; Day 10, Experiment No. 1): 99.09%
High molecular weight form ([2]; Day 10, Experiment No. 2): 1.08%
Low molecular weight form ([2]; Day 10, Experiment No. 2): 98.92%
High molecular weight form ([2]; Day 12, Experiment No. 1): 1.17%
Low molecular weight form ([2]; Day 12, Experiment No. 1): 98.83%
High molecular weight form ([2]; Day 12, Experiment No. 2): 1.35%
Low molecular weight form ([2]; Day 12, Experiment No. 2): 98.65%
High molecular weight form ([2]; Day 14, Experiment No. 1): 1.68%
Low molecular weight form ([2]; Day 14, Experiment No. 1): 98.32%
High molecular weight form ([2]; Day 14, Experiment No. 2): 1.80%
Low molecular weight form ([2]; Day 14, Experiment No. 2): 98.20%
Molecule: Nc1ccc(CP(=O)([O-])CN2CCN(CC(=O)[O-])CCN(CC(=O)[O-])CCN(CC(=O)[O-])CC2)cc1.[88Y+3] [^88Y-DO3A-P^BnNH2 complex]
Dissociation of the radionuclide ^88Y-yttrium from the complex and binding to plasma proteins ([2]; human plasma at 37° C. over 14 days): < 2 % of the total activity administered to human plasma
Stability of the complex in human plasma ([2]; human plasma at 37° C. over 14 days, standardised in vitro conditions): highly stable; also recorded: high stability

radiochemical yield ([3]; pH 2.0, [Y] = 1.5 · 10^−5 mol/l, ratio of ligand: Y = 3:1, reaction time 60 min, 25° C.): 12%
radiochemical yield ([3]; pH 3.0, [Y] = 1.5 · 10^−5 mol/l, ratio of ligand: Y = 3:1, reaction time 60 min, 25° C.): 54%
radiochemical yield ([3]; pH 3.9, [Y] = 1.5 · 10^−5 mol/l, ratio of ligand: Y = 3:1, reaction time 60 min, 25° C.): 77%
radiochemical yield ([3]; pH 4.4, [Y] = 1.5 · 10^−5 mol/l, ratio of ligand: Y = 3:1, reaction time 60 min, 25° C.): 93%
radiochemical yield ([3]; pH 4.9, [Y] = 1.5 · 10^−5 mol/l, ratio of ligand: Y = 3:1, reaction time 60 min, 25° C.): 97%
radiochemical yield ([3]; pH 5.6, [Y] = 1.5 · 10^−5 mol/l, ratio of ligand: Y = 3:1, reaction time 60 min, 25° C.): 95%
radiochemical yield ([3]; pH 6.0, [Y] = 1.5 · 10^−5 mol/l, ratio of ligand: Y = 3:1, reaction time 60 min, 25° C.): 93%
radiochemical yield ([3]; pH 6.2, [Y] = 1.5 · 10^−5 mol/l, ratio of ligand: Y = 3:1, reaction time 60 min, 25° C.): 97%
radiochemical yield ([3]; pH 6.6, [Y] = 1.5 · 10^−5 mol/l, ratio of ligand: Y = 3:1, reaction time 60 min, 25° C.): 98%
radiochemical yield ([3]; pH 6.8, [Y] = 1.5 · 10^−5 mol/l, ratio of ligand: Y = 3:1, reaction time 60 min, 25° C.): 98%
radiochemical yield ([3]; pH 8.0, [Y] = 1.5 · 10^−5 mol/l, ratio of ligand: Y = 3:1, reaction time 60 min, 25° C.): 98%
radiochemical yield ([3]; pH 8.9, [Y] = 1.5 · 10^−5 mol/l, ratio of ligand: Y = 3:1, reaction time 60 min, 25° C.): 91%
radiochemical yield ([3]; ratio of ligand:Y 1:1, [Y] = 1.2 · 10^−3 mol/l, pH = 5.2, reaction time 60 min, 25° C.): 94%
radiochemical yield ([3]; ratio of ligand:Y 2:1, [Y] = 1.2 · 10^−3 mol/l, pH = 5.2, reaction time 60 min, 25° C.): 97%
radiochemical yield ([3]; ratio of ligand:Y 3:1, [Y] = 1.2 · 10^−3 mol/l, pH = 5.2, reaction time 60 min, 25° C.): 98%
radiochemical yield ([3]; ratio of ligand:Y 4:1, [Y] = 1.2 · 10^−3 mol/l, pH = 5.2, reaction time 60 min, 25° C.): 99%
radiochemical yield ([3]; ratio of ligand:Y 5:1, [Y] = 1.2 · 10^−3 mol/l, pH = 5.2, reaction time 60 min, 25° C.): 97%
radiochemical yield ([3]; ratio of ligand:Y 6:1, [Y] = 1.2 · 10^−3 mol/l, pH = 5.2, reaction time 60 min, 25° C.): 99%
radiochemical yield ([3]; ratio of ligand:Y 7:1, [Y] = 1.2 · 10^−3 mol/l, pH = 5.2, reaction time 60 min, 25° C.): 97%
radiochemical yield ([3]; reaction time 15 min, 25° C., [Y] = 1,2 · 10^−3 mol/l, ratio of ligand: Y = 1:1, pH = 5.5): 97%
radiochemical yield ([3]; reaction time 15 min, 37° C., [Y] = 1,2 · 10^−3 mol/l, ratio of ligand: Y = 1:1, pH = 5.5): 98%
radiochemical yield ([3]; reaction time 30 min, 25° C., [Y] = 1,2 · 10^−3 mol/l, ratio of ligand: Y = 1:1, pH = 5.5): 97%
radiochemical yield ([3]; reaction time 30 min, 37° C., [Y] = 1,2 · 10^−3 mol/l, ratio of ligand: Y = 1:1, pH = 5.5): 98%
radiochemical yield ([3]; reaction time 45 min, 25° C., [Y] = 1,2 · 10^−3 mol/l, ratio of ligand: Y = 1:1, pH = 5.5): 97%
radiochemical yield ([3]; reaction time 45 min, 37° C., [Y] = 1,2 · 10^−3 mol/l, ratio of ligand: Y = 1:1, pH = 5.5): 98%
radiochemical yield ([3]; reaction time 60 min, 25° C., [Y] = 1,2 · 10^−3 mol/l, ratio of ligand: Y = 1:1, pH = 5.5): 97%
radiochemical yield ([3]; reaction time 60 min, 37° C., [Y] = 1,2 · 10^−3 mol/l, ratio of ligand: Y = 1:1, pH = 5.5): 97%
radiochemical yield ([3]; reaction time 90 min, 25° C., [Y] = 1,2 · 10^−3 mol/l, ratio of ligand: Y = 1:1, pH = 5.5): 98%
radiochemical yield ([3]; reaction time 90 min, 37° C., [Y] = 1,2 · 10^−3 mol/l, ratio of ligand: Y = 1:1, pH = 5.5): 98%
radiochemical yield ([3]; reaction time 120 min, 25° C., [Y] = 1,2 · 10^−3 mol/l, ratio of ligand: Y = 1:1, pH = 5.5): 98%
radiochemical yield ([3]; reaction time 120 min, 37° C., [Y] = 1,2 · 10^−3 mol/l, ratio of ligand: Y = 1:1, pH = 5.5): 99%
radiochemical yield ([4]; 25° C.): 88%
radiochemical yield ([4]; 37° C.): 88%
Molecule: Nc1ccc(CP(=O)([O-])CN2CCN(CC(=O)[O-])CCN(CC(=O)[O-])CCN(CC(=O)[O-])CC2)cc1.[90Y+3] [^90Y-DO3A-P^BnNH2-complex]

relaxivity [5]: 7.54 mmol⁻¹ s⁻¹
Molecule: Gadolinium(III) Complex of DO3A-P [gadolinium(III) complex of compound 1]
